According to US8653075B2, “Therapeutic methods employing substituted piperidines which are CCR3 antagonists” (Boehringer Ingelheim International GmbH, priority 2009, dated 2014):

Target: T1, human chemokine receptor CCR3 (Homo sapiens, UniProt P51677)
T1 construct: expressed in transfected cells; host or cells: K562 cell line (hCCR3-C1 cells), membrane preparation
T1 sequence (P51677 1-355): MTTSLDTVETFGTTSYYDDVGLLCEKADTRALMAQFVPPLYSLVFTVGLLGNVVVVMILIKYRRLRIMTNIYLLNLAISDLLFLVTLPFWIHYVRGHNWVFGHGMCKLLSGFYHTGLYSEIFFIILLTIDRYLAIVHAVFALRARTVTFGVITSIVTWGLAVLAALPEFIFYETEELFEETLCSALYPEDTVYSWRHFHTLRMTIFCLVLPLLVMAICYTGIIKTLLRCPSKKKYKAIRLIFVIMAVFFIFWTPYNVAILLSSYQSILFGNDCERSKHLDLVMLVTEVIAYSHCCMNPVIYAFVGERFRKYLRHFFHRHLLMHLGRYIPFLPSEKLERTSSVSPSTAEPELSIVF
Assay: CCR3 receptor binding assay (SPA, 125I-eotaxin-1 displacement, hCCR3-C1 K562 cell membranes)
Details: human Eotaxin-1 at human CCR3-Rezeptor; for inhibition at 1 µM: 1 μM test compound, read-out: CCR3 % inh @ 1 μM; for Ki: dose range 0.1 to 10000 nM
How it was run: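 SPA displacement of recombinant human 125I-eotaxin-1 (30.000 dpm per well) from membranes of CCR3-transfected K562 cells (0.5-10 μg protein/well) on WGA beads. Buffer was 25 mM HEPES, 25 mM MgCl2, 1 mM CaCl2, 0.1% BSA; incubation 2 h at room temperature. Specific binding was total minus NSB (unlabelled eotaxin-1), giving % inhibition and Ki.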

Compound | inhibition at 1 µM [%] | Ki [nM]
CN1C[C@H](C(=O)Nc2cc(C3CC3)nn2C)N(C2CCN(Cc3ccc(OC(F)(F)F)c(F)c3)CC2)C1=O [Example 197] | 44 | 1250
CN1C[C@H](C(=O)Nc2cc(C3CC3)nn2C)N(C2CCN(Cc3ccc(Cl)c(C(F)(F)F)c3)CC2)C1=O [Example 199] | 66 | 453
CNC(=O)c1cccc(NC(=O)[C@H]2CCC(=O)N2C2CCN(Cc3ccc(Cl)cc3)CC2)c1 [Example 201] | 86 | 119
CNC(=O)c1cccc(NC(=O)[C@H]2CCC(=O)N2C2CCN(Cc3ccc(F)cc3)CC2)c1 [Example 202] | 69 | 390
CNC(=O)c1cccc(NC(=O)[C@H]2CCC(=O)N2C2CCN(Cc3ccc(F)c(Cl)c3)CC2)c1 [Example 203] | 75 | 237
CNC(=O)c1cccc(NC(=O)[C@H]2CCC(=O)N2C2CCN(Cc3ccc(Cl)c(F)c3)CC2)c1 [Example 204] | 80 | 299
CNC(=O)c1cccc(NC(=O)[C@H]2CCC(=O)N2C2CCN(Cc3ccc(C)c(C)c3)CC2)c1 [Example 205] | 76 | 247
CNC(=O)c1cccc(NC(=O)[C@H]2CCC(=O)N2C2CCN(Cc3ccc(Cl)s3)CC2)c1 [Example 206] | 77 | 357
CNC(=O)c1cccc(NC(=O)[C@H]2CCC(=O)N2C2CCN(Cc3cc(Br)cs3)CC2)c1 [Example 207] | 75 | 442
Cc1cc(-c2nc[nH]n2)cc(NC(=O)C2CCC(=O)N2C2CCN(Cc3ccc(Cl)c(C)c3)CC2)n1 (stereo not shown) [Example 210] | 96 | 
CCCCc1cc(C(=O)N(C)C)cc(NC(=O)C2CCC(=O)N2C2CCN(Cc3ccc(Cl)c(C)c3)CC2)n1 (stereo not shown) [Example 213] | 66 | 414

Other lines, results leading:

inhibition at 1 µM [%] | Ki [nM] | Compound
89 | 95 | Cc1cc(-c2nnnn2C)cc(NC(=O)[C@H]2CCC(=O)N2C2CCN(Cc3ccc(Cl)c(C)c3)CC2)n1 [Example 196]
91 | 67 | CN1C[C@H](C(=O)Nc2cc(C3CC3)nn2C)N(C2CCN(Cc3ccc(Cl)c(Cl)c3)CC2)C1=O [Example 198]
86 | 114 | CNC(=O)c1cccc(NC(=O)[C@H]2CCC(=O)N2C2CCN(Cc3ccc(Br)cc3)CC2)c1 [Example 200]
95 | 33 | Cc1cc(CN2CCC(N3C(=O)N(C)C[C@H]3C(=O)Nc3cc(C4CC4)nn3C)CC2)ccc1Cl [Example 209]
 | 13 | Cc1cc(-c2nc[nH]n2)cc(NC(=O)[C@H]2CCC(=O)N2C2CCN(Cc3ccc(Cl)c(C)c3)CC2)n1 [Example 210]
93 | 48 | Cc1cc(CN2CCC(N3C(=O)CC[C@@H]3C(=O)Nc3cc(-c4nc[nH]n4)ccn3)CC2)ccc1Cl [Example 211]
101 | 2 | Cc1cc(CN2CCC(N3C(=O)CC[C@@H]3C(=O)Nc3cc(C(=O)N(C)C)cc(C4CC4)n3)CC2)ccc1Cl [Example 214]
